Several values for one entry are separate records, joined by “and”; a condition that tells them apart may be missing. Equal values may be shown once.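 Protocol summary: plate cells (96-well), add compound at 5 concentrations, incubate 48 h, interpolate endpoints linearly. GI50 marks 50% less growth.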 Activity calls are given as the source filed them. Cut-off read from the data, not from the text of the source: active = GI50 up to about 1.1 µM and inactive = higher. Where a SMILES comes first, the peptide text is derived from it. [ ]: non-standard residue; d: D form. The star is where a group is joined. Iva = CC[C](C)(N)C(=O)O; Boc = CC(C)(C)OC(=O)*; X54 = C1CCC(=NO*)C1
Assays:
Experiment in all cases: inhibition of tumour cell growth, NCI panel, 48 h
NCI/ADR-RES = tested on: NCI/ADR-RES
HOP-18 = tested on: HOP-18
XF498 = tested on: XF498
RXF 631 = tested on: RXF 631
ACHN = tested on: ACHN
T47D = tested on: T47D
DU-145 = tested on: DU-145
PC-3 = tested on: PC-3

Measured: GI50

CC(C(=O)O)c1cnn(-c2ccccc2)c1-n1cccc1 (stereo unspecified)
inactive: NCI/ADR-RES > 100 µM | HOP-18 > 100 µM | XF498 > 100 µM

CCOC(=O)C1=C(C)N(C2OC(COC(C)=O)C(OC(C)=O)C(OC(C)=O)C2OC(C)=O)C(=O)NC1c1ccccc1 (stereo unspecified)
inactive: HOP-18 > 100 µM | RXF 631 > 100 µM | ACHN > 100 µM

CC(Oc1ccc(Oc2cnc3ccc(Cl)cc3n2)cc1)C(=O)O (stereo unspecified)
inactive: T47D 92 µM and 64.4 µM | ACHN 60.5 µM | DU-145 > 88.9 µM

COc1ccc(-c2c3c(nc4nc(SCC(=O)c5ccc(Br)cc5)nc(N)c24)CCCC3)cc1OC
inactive: NCI/ADR-RES 74.5 µM | T47D 73.6 µM | PC-3 > 100 µM | ACHN > 100 µM | DU-145 > 100 µM

CC(=O)c1ccc(Oc2ccc(/C(C)=N\N=C(N)N)cc2)cc1
inactive: ACHN 4.73 µM

COc1cc2cc[n+]3c(C)c4cc(OC)c(OC)cc4c([O-])c3c2cc1OC
inactive: XF498 22.1 µM | ACHN > 100 µM

C/C(=N/NC(=O)c1ccncc1)C(F)(F)F
inactive: NCI/ADR-RES > 100 µM | T47D > 100 µM | PC-3 > 100 µM | DU-145 > 100 µM

CCCCCCCCCCCCCCCc1ccc(OCC(O)CO)cc1 (stereo unspecified)
inactive: HOP-18 > 100 µM | RXF 631 27.1 µM | XF498 19.4 µM | ACHN 65 µM

NC(Cc1ccccc1CP(=O)(O)O)C(=O)O (stereo unspecified)
inactive: NCI/ADR-RES > 100 µM | T47D 35.9 µM | PC-3 > 100 µM | ACHN > 100 µM | DU-145 > 100 µM

C[C@@H]1C[C@]2(C[C@@H](C)[C@H]3C(C[C@@]4(C)CCC[C@@H]5C6=C[C@H](CCC34C)OC6=CC(=O)OC5(C)C)O2)OC1=O (stereo partly specified)
inactive: NCI/ADR-RES > 51.5 µM | HOP-18 > 51.5 µM | XF498 > 51.5 µM

CC1=NN(C(=O)c2ccc(C)cc2)C(=O)C1/N=N/c1ccccc1C(=O)O (stereo unspecified)
inactive: NCI/ADR-RES > 100 µM | HOP-18 > 100 µM | XF498 61.8 µM

COC(=O)/C=C\Sc1ccn(/C=C\C(=O)OC)c(=S)n1
inactive: NCI/ADR-RES 19.6 µM | T47D 18.4 µM | PC-3 19.1 µM | ACHN 18.2 µM | DU-145 > 100 µM

COc1cc(C(O)(CC#N)c2cc3c(cc2Br)OCO3)cc(OC)c1OC (stereo unspecified)
inactive: NCI/ADR-RES 40 µM | T47D > 100 µM | PC-3 28.1 µM | ACHN 92.7 µM | DU-145 33.5 µM

CCC(C)(NC(=O)C(C)NC(=O)OC(C)(C)C)C(=O)NC(C)C(=O)NC(C)(CC)C(=O)ON=C1CCCC1 (stereo unspecified) (Boc-A[Iva]A[Iva]-X54; configuration not given here)
inactive: NCI/ADR-RES > 100 µM | T47D > 100 µM | PC-3 > 100 µM | DU-145 > 100 µM

COc1ccc(/C=N/n2cnc3c(c2=O)SC(=C(C#N)C#N)N3c2ccccc2)cc1
inactive: HOP-18 50.7 µM | ACHN > 100 µM

COc1ncnc2c(Cl)c(C(O)c3ccccc3)c(Cl)cc12 (stereo unspecified)
inactive: NCI/ADR-RES 28 µM | T47D 40.1 µM | PC-3 27.4 µM | ACHN 26.4 µM | DU-145 60.4 µM

O=C1C(CO)=C[C@H](O)[C@H]2O[C@@H]12
inactive: NCI/ADR-RES 162 µM | HOP-18 > 625 µM | XF498 177 µM

O=C1C(Cl)N(c2ccc(Cl)cc2)C1c1c[nH]c2ccccc12 (stereo unspecified)
inactive: XF498 17.5 µM
